Reference: publication PMC5361811, “Inhibition of human endogenous retrovirus-K by antiretroviral drugs” (Retrovirology, 2017)

Tested on: T1, HERV-K protease
T1 construct: gene pro; retroviral aspartic protease of consensus HERV-K genome (from Gag-Pro-Pol polyprotein; synthetic, plasmid pCD-HK/Rev), acting in transfected HeLa or 293 cells and virions; homodimer by homology
Experiment: virus production in transfected HeLa cells, RT activity in supernatant by PERT
Assay type: cell-based
Conditions: Homo sapiens, read-out: HERV-K IC50 (μM)
Text: virus production in transfected HeLa cells, RT activity in supernatant by PERT on HERV-K protease

Cc1cccc(C)c1OCC(=O)N[C@@H](Cc1ccccc1)[C@@H](O)C[C@H](Cc1ccccc1)NC(=O)[C@H](C(C)C)N1CCCNC1=O [Lopinavir]
IC50: 0.034 µM

CC(C)CN(C[C@@H](O)[C@H](Cc1ccccc1)NC(=O)O[C@H]1CO[C@H]2OCC[C@H]21)S(=O)(=O)c1ccc(N)cc1 [Darunavir]
IC50: 0.029 µM
